Data taken from ChEMBL document CHEMBL1201862, “PubChem BioAssay data set” (2004).
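These data come from cells grown in 96-well plates and exposed to compound for 48 hours at five concentrations. GI50 = concentration required for 50% inhibition of growth.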 Activity calls are given as the source filed them. Rule as the data show it: active = GI50 up to about 1.1 µM and inactive = higher.

Legend:
Assay in all cases: NCI tumour cell line growth inhibition, 48 h
HOP-62 = test system: HOP-62
EKVX = test system: EKVX
NCI-H522 = test system: NCI-H522
OVCAR-3 = test system: OVCAR-3
TK-10 = test system: TK-10
UACC-257 = test system: UACC-257
CAKI-1 = test system: CAKI-1
NCI-H460 = test system: NCI-H460
786-0 = test system: 786-0
HCC 2998 = test system: HCC 2998
SF-268 = test system: SF-268
IGROV-1 = test system: IGROV-1
A549 = test system: A549
SNB-19 = test system: SNB-19
SN12C = test system: SN12C
SK-OV-3 = test system: SK-OV-3
UO-31 = test system: UO-31
HL-60 = test system: HL-60
LOX IMVI = test system: LOX IMVI
OVCAR-5 = test system: OVCAR-5

Measured: GI50

Cc1c(OC(C)C(=O)O)ccc2c(-c3ccccc3)cc(=O)oc12 (configuration not stated)
inactive: HOP-62 > 100 µM | EKVX > 100 µM | NCI-H522 > 100 µM | OVCAR-3 > 100 µM | TK-10 > 100 µM | UACC-257 > 100 µM | CAKI-1 > 100 µM | NCI-H460 > 100 µM | 786-0 > 100 µM | HCC 2998 > 100 µM | SF-268 > 100 µM | IGROV-1 > 100 µM | A549 > 100 µM | SNB-19 > 100 µM | SN12C > 100 µM | SK-OV-3 > 100 µM | UO-31 > 100 µM | HL-60 > 100 µM | LOX IMVI > 100 µM

O=C(Nc1ccc(Cl)c(Cl)c1)C(=O)C(C(=O)c1ccccc1F)C1OC(=O)c2ccccc21 (configuration not stated)
inactive: HOP-62 23.4 µM | OVCAR-5 49.1 µM | EKVX 22.4 µM | NCI-H522 12.6 µM | TK-10 38.8 µM | UACC-257 40.8 µM | CAKI-1 35.2 µM | NCI-H460 18.6 µM | HCC 2998 17.9 µM | SF-268 23.7 µM | IGROV-1 27.4 µM | A549 27.8 µM | SNB-19 17.5 µM | SN12C 19.2 µM | SK-OV-3 27.7 µM | UO-31 18.8 µM | HL-60 14.1 µM | LOX IMVI 18.4 µM

CSc1sc(C)cc1-c1nsc(=O)o1
inactive: OVCAR-5 > 100 µM | EKVX > 100 µM | NCI-H522 > 100 µM | UACC-257 > 100 µM | CAKI-1 > 100 µM | NCI-H460 > 100 µM | 786-0 > 100 µM | HCC 2998 > 100 µM | SF-268 > 100 µM | IGROV-1 > 100 µM | A549 > 100 µM | SNB-19 > 100 µM | SN12C > 100 µM | UO-31 > 100 µM | HL-60 > 100 µM | LOX IMVI > 100 µM

O=C1C(Cl)C2(CC(/C=C/c3cccs3)=NN2c2cccc(S(=O)(=O)O)c2)N1c1nc2ccccc2s1 (configuration not stated)
inactive: OVCAR-5 > 100 µM | EKVX 24.2 µM | NCI-H522 18.2 µM | TK-10 19.3 µM | UACC-257 76.9 µM | CAKI-1 37.1 µM | NCI-H460 31.1 µM | 786-0 94.6 µM | HCC 2998 > 100 µM | SF-268 > 100 µM | IGROV-1 21.1 µM | A549 42 µM | SNB-19 > 100 µM | SN12C > 100 µM | UO-31 10.9 µM | HL-60 64.6 µM | LOX IMVI 15.1 µM

C#CCN(Cc1ccc2nc(-c3ccccc3)c(Cl)nc2c1)c1ccc(F)cc1
inactive: HOP-62 > 100 µM | OVCAR-5 > 100 µM | EKVX > 100 µM | NCI-H522 40.6 µM | OVCAR-3 > 100 µM | TK-10 > 100 µM | UACC-257 > 100 µM | CAKI-1 > 100 µM | NCI-H460 > 100 µM | 786-0 > 100 µM | HCC 2998 > 100 µM | SF-268 > 100 µM | IGROV-1 > 100 µM | A549 > 100 µM | SNB-19 > 100 µM | SN12C > 100 µM | UO-31 80.7 µM | HL-60 15.1 µM | LOX IMVI > 100 µM

COc1nc(N=P(c2ccccc2)(c2ccccc2)c2ccccc2)cc(=O)n1C
inactive: HOP-62 > 100 µM | OVCAR-5 > 100 µM | EKVX > 100 µM | NCI-H522 > 100 µM | OVCAR-3 > 100 µM | TK-10 > 100 µM | UACC-257 > 100 µM | CAKI-1 > 100 µM | NCI-H460 > 100 µM | 786-0 > 100 µM | HCC 2998 > 100 µM | SF-268 > 100 µM | IGROV-1 > 100 µM | A549 > 100 µM | SNB-19 > 100 µM | SN12C > 100 µM | SK-OV-3 > 100 µM | UO-31 > 100 µM | HL-60 > 100 µM | LOX IMVI > 100 µM

COc1cc(C(C)c2cc3c(cc2OCCOCCOc2cc4c(cc2C(C)c2cc(OC)c(OC)c(OC)c2)OCO4)OCO3)cc(OC)c1OC (configuration not stated)
inactive: HOP-62 > 10 µM | OVCAR-5 > 10 µM | EKVX > 10 µM | NCI-H522 > 10 µM | OVCAR-3 > 10 µM | TK-10 > 10 µM | UACC-257 > 10 µM | CAKI-1 > 10 µM | NCI-H460 > 10 µM | 786-0 > 10 µM | HCC 2998 > 10 µM | SF-268 > 10 µM | IGROV-1 > 10 µM | A549 > 10 µM | SNB-19 > 10 µM | SN12C > 10 µM | SK-OV-3 > 10 µM | UO-31 29.7 µM | HL-60 > 10 µM | LOX IMVI > 10 µM

CCOC(=O)C1(C#N)C(c2ccccc2)CC(O)(c2ccc(OC)cc2)C(C(=O)c2ccc(OC)cc2)C1c1ccccc1 (configuration not stated)
inactive: HOP-62 > 100 µM | OVCAR-5 > 100 µM | EKVX > 100 µM | NCI-H522 > 100 µM | OVCAR-3 > 100 µM | TK-10 > 100 µM | UACC-257 > 100 µM | CAKI-1 98.2 µM | NCI-H460 > 100 µM | 786-0 > 100 µM | HCC 2998 > 100 µM | SF-268 > 100 µM | IGROV-1 > 100 µM | A549 > 100 µM | SNB-19 32.4 µM | SN12C > 100 µM | SK-OV-3 > 100 µM | UO-31 74.6 µM | HL-60 > 100 µM | LOX IMVI > 100 µM

Brc1cc(CCOC2CCCCO2)c(-c2sccc2CCOC2CCCCO2)s1 (configuration not stated)
inactive: HOP-62 63.2 µM | OVCAR-5 > 100 µM | EKVX 47.6 µM | NCI-H522 14.4 µM | OVCAR-3 71.4 µM | TK-10 > 59.6 µM | UACC-257 35.5 µM | CAKI-1 > 91.4 µM | NCI-H460 33.4 µM | 786-0 35.1 µM | HCC 2998 31.9 µM | SF-268 53.6 µM | IGROV-1 53.2 µM | A549 24.8 µM | SNB-19 > 100 µM | SN12C > 100 µM | SK-OV-3 > 69.2 µM | UO-31 14 µM | HL-60 17.8 µM | LOX IMVI 26.3 µM

CC(C)CCNc1ncnc2[nH]ncc12
inactive: HOP-62 96.6 µM | OVCAR-5 49.4 µM | EKVX 26.4 µM | NCI-H522 59.4 µM | OVCAR-3 > 100 µM | TK-10 > 100 µM | UACC-257 32 µM | CAKI-1 98.6 µM | NCI-H460 > 100 µM | 786-0 > 100 µM | HCC 2998 > 100 µM | SF-268 > 100 µM | IGROV-1 > 100 µM | A549 > 100 µM | SNB-19 > 100 µM | SN12C > 100 µM | SK-OV-3 > 100 µM | UO-31 > 100 µM | HL-60 > 100 µM | LOX IMVI 91.2 µM

O=c1oc2ccc(-n3c(=O)c4ccccc4c4ccccc4c3=O)cc2c2ccccc12
inactive: HOP-62 > 100 µM | OVCAR-5 > 100 µM | EKVX > 100 µM | NCI-H522 > 100 µM | OVCAR-3 > 100 µM | TK-10 > 100 µM | UACC-257 > 100 µM | CAKI-1 > 100 µM | NCI-H460 > 100 µM | 786-0 66.2 µM | HCC 2998 > 100 µM | SF-268 50 µM | IGROV-1 > 100 µM | A549 > 100 µM | SNB-19 37.7 µM | SN12C > 100 µM | SK-OV-3 > 100 µM | UO-31 > 100 µM | HL-60 > 100 µM | LOX IMVI > 100 µM

C=C(C)C1Cc2c(cc(O)c3c(=O)c4ccccc4n(C)c23)O1 (configuration not stated)
inactive: HOP-62 14.2 µM | OVCAR-5 > 100 µM | NCI-H522 19.9 µM | TK-10 17.5 µM | UACC-257 > 100 µM | CAKI-1 20.7 µM | NCI-H460 43.5 µM | HCC 2998 > 100 µM | SF-268 21.5 µM | A549 49.8 µM | SNB-19 13.9 µM | SN12C 43.1 µM | SK-OV-3 25.5 µM | HL-60 39 µM | LOX IMVI 10.7 µM

COC1=CC(=O)[C@@]2(C)C(C)[C@H](c3ccccc3)[C@H]2C1=O (some centres not stated)
inactive: HOP-62 > 100 µM | OVCAR-5 > 100 µM | EKVX > 100 µM | NCI-H522 > 100 µM | OVCAR-3 > 100 µM | TK-10 > 100 µM | UACC-257 > 100 µM | CAKI-1 > 100 µM | NCI-H460 > 100 µM | 786-0 > 100 µM | HCC 2998 > 100 µM | SF-268 > 100 µM | IGROV-1 > 100 µM | A549 > 100 µM | SNB-19 > 100 µM | SK-OV-3 > 100 µM | UO-31 > 100 µM | HL-60 > 100 µM | LOX IMVI > 100 µM

O=c1c2cc(I)ccc2nc(-c2cccs2)n1O
inactive: HOP-62 48.9 µM | OVCAR-5 44.8 µM | EKVX 26.4 µM | NCI-H522 37.5 µM | OVCAR-3 15.6 µM | TK-10 24.6 µM | UACC-257 59 µM | CAKI-1 28.8 µM | NCI-H460 36.6 µM | 786-0 55.2 µM | HCC 2998 30 µM | SF-268 38.4 µM | IGROV-1 30.5 µM | A549 22.6 µM | SNB-19 22.2 µM | SN12C 45 µM | UO-31 49 µM | HL-60 34.3 µM | LOX IMVI 28.1 µM
